Where two headings read alike, the source gives them in different places.
Test system: panel of 183 cancer cell lines
Assay: Cell panel of 183 cancer cell lines, viability (CTG) at Crown Bioscience
Type: cell-based
Conditions: Homo sapiens
Source text: The panel consisted of cell lines with any substitution at position 12 of KRAS, NRAS or HRAS (KRAS(G12X), NRAS(G12X), HRAS(G12X)); substitutions in KRAS, NRAS or HRAS at any position other than 12, 13 and 61 (KRAS(other/VUS), NRAS(other/VUS), HRAS(other/VUS)); other oncogenic mutations in the RAS pathway (ABL1, ALK, ARAF, BRAF, CBL, EGFR, ERBB2, ERBB3, ERBB4, ERRFI1, FGFR1, FGFR2, FGFR3, FGFR4, FLT3, HRAS, IGF1R, JAK2, KIT, MAP2K1, MAP2K2, MAPK1, MET, NF1, NRAS, NTRK1, NTRK2, NTRK3, PDGFRA, PTPN11, RAC1, RAF1, RASA1, RET, RIT1, ROS1 and SOS1); and no oncogenic mutations in the RAS pathway. […] Cells were incubated for 120 h, and cell viability was determined using the CellTiter-Glo Luminescent Cell Viability Assay (CTG) (Promega, G7572) according to the manufacturer’s instructions.

With `CCn1c(-c2cc(N3CCN(C4CC4)CC3)cnc2[C@H](C)OC)c2c3cc(ccc31)-c1csc(n1)C[C@H](NC(=O)[C@H]1[C@@H]3COC[C@@H]31)C(=O)N1CCC[C@H](N1)C(=O)OCC(C)(C)C2` [RMC-7977] the EC50 (786-0, read-out: RMC-7977 EC50 (M), 786O, RAS pathway WT, Kidney) was > 1e-06 M, the EC50 (A 172, read-out: RMC-7977 EC50 (M), A172, RAS pathway WT, Brain&Nerves) was 1.19e-07 M and the EC50 (A549, read-out: RMC-7977 EC50 (M), A549, KRAS G12S, Lung) was 5.13e-09 M. For the same molecule, the EC50 (A-375, read-out: RMC-7977 EC50 (M), A375, BRAF V600E, Skin) was > 1e-06 M, the EC50 (A-427, read-out: RMC-7977 EC50 (M), A427, KRAS G12D, Lung) was 4.79e-09 M and the EC50 (AN3-CA, read-out: RMC-7977 EC50 (M), AN3CA, RAS pathway WT, Uterus) was 2.87e-08 M. For the same molecule, the EC50 (ASPC1, read-out: RMC-7977 EC50 (M), ASPC1, KRAS G12D, Pancreas) was 2.63e-09 M, the EC50 (AU565, read-out: RMC-7977 EC50 (M), AU565, RAS pathway WT, Breast) was > 1e-06 M and the EC50 (BRAF^MUT Other cell lines, read-out: median EC50) was 7.54e-08 M. For the same molecule, the EC50 (BRAF^V600E cell lines, read-out: median EC50) was > 1e-06 M, the EC50 (BXPC-3, read-out: RMC-7977 EC50 (M), BXPC3, BRAF mut other, Pancreas) was 2.97e-08 M and the EC50 (CAL-51, read-out: RMC-7977 EC50 (M), CAL51, NRAS Y137H, Breast) was 2.88e-08 M. The EC50 (CAL-62, read-out: RMC-7977 EC50 (M), CAL62, KRAS G12R, HN/Thyroid) was 2.29e-09 M, the EC50 (CAPAN-1, read-out: G12X (62), RMC-7977 EC50 (CTG), CAPAN1, KRAS G12X) was 1.41e-09 M and the EC50 (CAPAN-1, read-out: RMC-7977 EC50 (M), CAPAN1, KRAS G12V, Pancreas) was 1.41e-09 M. It also gave an EC50 (CFPAC-1, read-out: G12X (62), RMC-7977 EC50 (CTG), CFPAC1, KRAS G12X) of 2.95e-09 M, an EC50 (CFPAC-1, read-out: RMC-7977 EC50 (M), CFPAC1, KRAS G12V, Pancreas) of 2.95e-09 M and an EC50 (CHL-1, read-out: RMC-7977 EC50 (M), CHL1, RAS pathway WT, Skin) of 2.61e-08 M. The EC50 (CHP-212, read-out: RMC-7977 EC50 (M), CHP212, NRAS Q61K, Brain&Nerves) was 1.58e-09 M, the EC50 (COLO 201, read-out: RMC-7977 EC50 (M), COLO201, BRAF V600E, Large intestine/Colorectum) was > 1e-06 M and the EC50 (COR-L23, read-out: G12X (62), RMC-7977 EC50 (CTG), CORL23, KRAS G12X) was 2.75e-09 M. The EC50 (COR-L23, read-out: RMC-7977 EC50 (M), CORL23, KRAS G12V, Lung) was 2.75e-09 M, the EC50 (Calu-1, read-out: RMC-7977 EC50 (M), CALU1, KRAS G12C, Lung) was 6.61e-10 M and the EC50 (Calu-6, read-out: RMC-7977 EC50 (M), CALU6, KRAS Q61K, Lung) was 1.86e-09 M. It also gave an EC50 (Capan-2, read-out: G12X (62), RMC-7977 EC50 (CTG), CAPAN2, KRAS G12X) of 3.31e-10 M, an EC50 (Capan-2, read-out: RMC-7977 EC50 (M), CAPAN2, KRAS G12V, Pancreas) of 3.31e-10 M and an EC50 (CoC1, read-out: RMC-7977 EC50 (M), COC1, KRAS G12D, Ovary) of 1.58e-09 M. The EC50 (DLD-1, read-out: RMC-7977 EC50 (M), DLD1, KRAS G13D, Large intestine/Colorectum) was 4.57e-08 M, the EC50 (DMS-53, read-out: RMC-7977 EC50 (M), DMS53, RAS pathway WT, Lung) was 7.15e-08 M and the EC50 (DMS-114, read-out: RMC-7977 EC50 (M), DMS114, RAS pathway WT, Lung) was 7.09e-07 M. It also gave an EC50 (DU-145, read-out: RMC-7977 EC50 (M), DU145, RAS pathway WT, Prostate) of 1.72e-08 M, an EC50 (DV-90, read-out: RMC-7977 EC50 (M), DV90, KRAS G13D, Lung) of 2.95e-08 M and an EC50 (EBC-1, read-out: RMC-7977 EC50 (M), EBC1, MET amp, Lung) of 1.13e-09 M. The EC50 (FTC-133, read-out: RMC-7977 EC50 (M), FTC133, NF1 LOF, HN/Thyroid) was > 1e-06 M, the EC50 (HCC44, read-out: RMC-7977 EC50 (M), HCC44, KRAS G12C, Lung) was 5.25e-09 M and the EC50 (HCC70, read-out: RMC-7977 EC50 (M), HCC70, RAS pathway WT, Breast) was > 1e-06 M. For the same molecule, the EC50 (HCC78, read-out: RMC-7977 EC50 (M), HCC78, ROS1 fusion, Lung) was 7.49e-09 M, the EC50 (HCC827, HCC827, RTKMUT/fusion, read-out: EC50) was 3.03e-09 M and the EC50 (HCC827, read-out: RMC-7977 EC50 (M), HCC827, EGFR mut, Lung) was 3.03e-09 M. For the same molecule, the EC50 (HCC1187, read-out: RMC-7977 EC50 (M), HCC1187, RAS pathway WT, Breast) was 2.7e-07 M, the EC50 (HCC1428, read-out: RMC-7977 EC50 (M), HCC1428, RAS pathway WT, Breast) was > 1e-06 M and the EC50 (HCC1500, read-out: RMC-7977 EC50 (M), HCC1500, RAS pathway WT, Breast) was 5.01e-08 M. The EC50 (HCC2279, RTKMUT/fusion, read-out: EC50) was 4.52e-09 M, the EC50 (HCC2935, read-out: RMC-7977 EC50 (M), HCC2935, EGFR mut, Lung) was 2.39e-09 M and the EC50 (HCC4006, HCC4006, RTKMUT/fusion, read-out: EC50) was 2.39e-09 M. It also gave an EC50 (HCC4006, read-out: RMC-7977 EC50 (M), HCC4006, EGFR mut, Lung) of 2.39e-09 M, an EC50 (HCT-8, read-out: RMC-7977 EC50 (M), HCT8, KRAS G13D, Large intestine/Colorectum) of 3.02e-08 M and an EC50 (HCT-15, read-out: RMC-7977 EC50 (M), HCT15, KRAS G13D, Large intestine/Colorectum) of 2.75e-07 M. The EC50 (HCT-116, read-out: RMC-7977 EC50 (M), HCT116, KRAS G13D, Large intestine/Colorectum) was 6.61e-09 M, the EC50 (HEC-1-A, read-out: RMC-7977 EC50 (M), HEC1A, KRAS G12D, Uterus) was 1.74e-09 M and the EC50 (HGC-27, read-out: RMC-7977 EC50 (M), HGC27, NF1 LOF, Stomach) was > 1e-06 M. The EC50 (HPAC, read-out: RMC-7977 EC50 (M), HPAC, KRAS G12D, Pancreas) was 1.1e-08 M, the EC50 (HPAF-II, read-out: RMC-7977 EC50 (M), HPAFII, KRAS G12D, Pancreas) was 3.24e-09 M and the EC50 (HT-1080, read-out: RMC-7977 EC50 (M), HT1080, NRAS Q61K, Soft tissue) was 2.34e-09 M. For the same molecule, the EC50 (HepG2, read-out: RMC-7977 EC50 (M), HEPG2, NRAS Q61L, Liver) was 6.76e-09 M, the EC50 (Hs766T, read-out: RMC-7977 EC50 (M), HS766T, KRAS Q61H, Pancreas) was > 1e-06 M and the EC50 (Hs-578T, read-out: RMC-7977 EC50 (M), HS578T, HRAS G12D, Breast) was 1.45e-08 M. The EC50 (HuCCT-1, read-out: RMC-7977 EC50 (M), HUCCT1, KRAS G12D, Liver/Bile duct) was 5.13e-09 M, the EC50 (HuP-T4, read-out: RMC-7977 EC50 (M), HUPT4, KRAS G12V, Pancreas) was 2.51e-09 M and the EC50 (JHH7, read-out: RMC-7977 EC50 (M), JHH7, RAS pathway WT, Liver) was 8.08e-08 M.

From paper PMC11111408, “Concurrent inhibition of oncogenic and wild-type RAS-GTP for cancer therapy” (Nature, 2024)
